In patent US20230406849A1, “KRAS INHIBITORS FOR TREATMENT OF CANCERS” (TYLIGAND BIOSCIENCE (SHANGHAI) LIMITED, priority 2020, published 2023):
Like-named read-outs stand apart in the source and are kept apart here.

Experiments:
[1] = Cassette pharmacokinetic experiment in rats (IV); type: in vivo; conditions: rat, plasma, 1 mg/kg, male SD rats, tail vein IV, 1 mg/mL each compound at 1 mL/kg
From the text: 2.1 Pharmacokinetic Properties of Some Compounds of the Present Disclosure Evaluated by Cassette Pharmacokinetic Experiments in Rats.
[Test materials]: Male SD rats, age: 6-8 weeks, body weight 220-250 g, purchased from Zhaoyan (Suzhou) New Drug Research Center Co., Ltd.; Tolbutamide (Aladdin, Cat #H1401054); Sulfobutyl-(Captisol, Shandong Binzhou Zhiyuan Biological Technology Co., Ltd, Cat #20191013); Propylene glycol (15)-stearate (Solutol, Meilun Bio, Cat #50206A); DMSO (Vetec Company, Cat #WXBD0293V); acetonitrile (Sigma-Aldrich, Cat #WXBD1744V); Methanol (Sigma-Aldrich, Cat #WXBD2831V).
[Experimental procedure]: The compound combination was prepared in a solvent of 5% DMSO/10% Solutol/85% (20% Captisol), and the final concentration of each compound was 1 mg/mL. The SD rats were treated with the compound preparation in 1 mL/kg by tail vein IV injection, and blood samples were collected at the time points of 5 min, 15 min, 30 min, 1 h, 2 h, 4 h, 8 h, and 24 h via external jugular vein puncture, centrifuged at low temperature for 20 minutes to collect plasma samples, which were stored at −80° C. until analysis.
[Sample analysis]: Establishing LC-MS/MS compound analysis method
Standard curve preparation: 20 μL of lmg/mL DMSO stock solution for each compound was aspirated and transferred to […] of 50% methanol working solution, and the resulting solution was serially diluted to obtain a standard curve working solution with concentrations of 20000, 10000, 5000, 1000, 500, 100, 50, 20 and […]. Then 5 µL of this standard curve working solution was mixed with 45 μL rat blank plasma to give a standard curve with concentrations of 2000, 1000, 500, 100, 50, 10, 2 and 1 ng/mL for quantification of unknown samples.
Sample pretreatment: 50 μL of unknown plasma sample or standard curve sample was mixed with 250 μL of acetonitrile containing internal standard as a precipitant. The plasma protein was precipitated, extracted for test compounds, and centrifuged at low temperature for 20 minutes. The supernatant was taken, mixed with 0.1% formic acid aqueous solution, and 5 μL of the resulting solution was aspirated for blood concentration analysis.
[Data processing]: A standard curve was plotted using mass spectrometry software, to quantify unknown samples, and pharmacokinetic parameters are calculated by Winnonlin 8.2 using the drug concentration of unknown samples at each time point.

[2] = system: human non-small cell lung cancer cells NCI-H358 with KRas G12C mutation; assay: NCI-H358 cell proliferation, CellTiter-Glo Luminescent Cell Viability Assay; type: cell-based; conditions: for inhibition at 1 µM: 1 μM compound, read-out: Inhibition rate % (1 μM)
From the text: This assay verified the inhibitory activity of the compounds of the present disclosure on the proliferation of human non-small cell lung cancer cells NCI-H358 with KRas G12C mutation by using Promega's CellTiter-Glo® Luminescent Cell Viability Assay kit.
[Test materials]: NCI-H358 cell line (Cell Resource Center, IBMS, CAMS/PUMC, Item number: 3111C0001CCC000470), 96-well transparent flat-bottomed black-walled cell culture plate (Greiner Bio one, Cat #655096), RPMI-1640 Medium (GE, Cat #SH30809.01), Fetal Bovine Serum FBS (Thermo Fisher, Cat #10099-141), CellTiter-Glo® Luminescent Cell Viability Assay Kit (Promega, Cat #G7573), PBS (Solarbio, Cat #P1020), Trypsin (Thermo Fisher, Cat #25200072), DMSO (Sigma, Cat #D2650), Methyl cellulose (SIGMA, Cat #9004-67-5).
[Experimental procedure]: 180 μL of cell suspension (RPMI1640 solution with 10% FBS and 1% methyl cellulose) was charged to a 96-well cell culture plate at a density of 1500 cells/well. A control group containing no cells, no compounds and only 3D complete medium (RPMI 1640 solution with 1! Methyl cellulose and 10% FBS) (i.e. culture medium control) and a control group containing no compounds but cells (i.e. cell control) were set. AMG510 or the following reference compounds were used as positive controls. The cell plate was placed in a cell incubator overnight. A 10-fold drug solution (RPMI1640 solution with 10% FBS and 1% DMSO) was prepared at a concentration of 10 μM, and 20 μL of this solution was added to each well of the 96-well plate seeded with cells, so that the final concentration of the compounds in each well was 1 μM, and the DMSO concentration […] replicate wells were set up for each compound. The solutions of AMG510 or the following reference compounds were prepared in the same way and added to the positive control wells. The cell plate was placed in a cell incubator and cultured for 120 h. For endpoint detection, the CellTiter-Glo reagent was melted, and the cell plate was moved to room temperature to equilibrate for 30 minutes, added with 100 µL of CellTiter-Glo to each well, and shaken on an orbital shaker for 5 minutes to fully lyse the cells. The plate was kept at room temperature for 20 minutes to stabilize the luminescence signal, and the luminescence value of each well was full wavelength scanned with a multi-functional microplate reader (Molecular Devices, Spectramax M3 microplate reader).
[Test samples] The compounds of Examples 1-39, and reference compound A
[Data Analysis] The following formula was used to calculate the cell inhibition rate under the action of each concentration of the compounds:
Inhibition rate %=[1−(LumDrug to be tested−LumCulture medium control)/(LumCell control−LUMCulture medium control)]×100%
IC50 values were calculated using GraphPad Prism 7.0 software, nonlinear Sigmoidal regression was used to fit the data to obtain a dose-response curve.

[3] = system: human non-small cell lung cancer NCI-H358 xenograft; assay: Antitumor activity in NCI-H358 xenograft mouse model; type: in vivo, NPSG mice; conditions: NPSG mice, gavage once daily 10 mg/kg, day 14
Protocol: Tumor growth inhibitory activity of the compounds of the present disclosure was evaluated and verified in a human non-small cell lung cancer NCI-H358 xenograft mouse model.
[Test materials]: NCI-H358 cell line carrying KRAS G12C mutation, provided by KYinno Biotechnology Co., Ltd. (from ATCC, Cat #CRL-5807). NPSG mice, female, provided by Beijing Phenotek Biotechnologies Inc.
[Experimental procedure]: 5×10^6 NCI-H358 cells (containing 50% Matrigel) were inoculated subcutaneously on the right flank of 6-8 weeks old female NPSG mice, with the inoculation volume of 0.1 mL. When the average tumor size reached 160-220 mm^3, the mice were grouped randomly according to tumor size and body weight, upon which the mice were treated with compounds on the same day designated as Day 0. The mice were gavage administrated once daily at 10 mg/kg or solvent control (50 mM citrate buffer containing 10% cyclodextrin, pH5.0). Tumor volume and body weight were measured twice a week during the study. The tumor volume was calculated by the formula V=D×d×d/2, wherein D and d refer to the long and short diameter of the tumor respectively.
In addition, using the same materials and procedures as above, the tumor inhibition activity of Example 9 at different doses in the above-mentioned non-small cell lung cancer mouse model and its effect on body weight were also investigated.

Structure (SMILES) | AUC(0-t) [1] [ng·h/mL] | clearance [1] [mL/min/kg] | half-life [1] [h] | inhibition at 1 µM ([2]; 120 h) [%] | IC50 ([2]; 120 h, read-out: IC50) [nM] | IC50 ([2]; read-out: IC50 value) [nM] | TGI(%) [3] [%] | Tumor volume (mm^3) (day 14) [3]
C=CC(=O)N1CCN(c2c(C#N)c(-c3cccc4c3CCN(C)C4)nc3c(F)c(-c4ccc(F)c5sc(N)nc45)c(Cl)cc23)CC1 [Example 10, 4-(4-Acryloylpiperazin-1-yl)-7-(2-amino-7-fluorobenzo[d]thiazol-4-yl)-6-chloro-8-fluoro-2-(2-methyl-1,2,3,4-tetrahydroisoquinolin-5-yl)quinoline-3-carbonitrile] | 592 | 27.4 | 2.66 | 96.1 | 18 | < 20 |  | 
C=CC(=O)N1CCN(c2c(C#N)c(O[C@@H]3CN(C)C[C@H]3OC)nc3c(F)c(-c4ccc(F)c5sc(N)nc45)c(Cl)cc23)CC1 [Example 2, 4-(4-Acryloylpiperazin-1-yl)-7-(2-amino-7-fluorobenzo[d]thiazol-4-yl)-6-chloro-8-fluoro-2-(((3R,4R)-4-methoxy-1-methylpyrrolidin-3-yl)oxy)quinoline-3-carbonitrile] |  |  |  | 97.6 | 3 | < 20 | 69 | 497.3
C=CC(=O)N1CCN(c2c(C#N)c(O[C@@H]3CN(C)C[C@H]3OC)nc3c(F)c(-c4ccc(F)c5sc(N)nc45)c(Cl)cc23)C[C@H]1C [Example 1, 4-((R)-4-acryloyl-3-methylpiperazin-1-yl)-7-(2-amino-7-fluorobenzo[d]thiazol-4-yl)-6-chloro-8-fluoro-2-(((3R,4R)-4-methoxy-1-methylpyrrolidin-3-yl)oxy)quinoline-3-carbonitrile] | 657 | 20.9 | 2.87 | 94.7 | 15 | < 20 | 71 | 478.4
